The test system of one test is OT-II CD4 T cells. The experiment in a line: In vivo CD4 T cell activation (CFSE-labeled OT-II cells). Details: species or system mouse. The settings on record: with CpG adjuvant, three days after footpad immunization. The method, then:
Subsequently, immunization experiments were performed by injecting one footpad with free OVA or with nanoparticles composed of either PLA or PLGA that encapsulated an equivalent amount of OVA as a model antigen. All antigenic mixtures also contained CpG (a TLR9 agonist) as an adjuvant. The animals were injected, sacrificed three days after immunization, and OT-II T cell activation was assessed by flow cytometry in single-cell suspensions from different tissues.
By contrast, activated T cells divide and in the process split the fluorescent dye evenly between the two daughter cells resulting in an incremental decrease in fluorescence intensity upon each successive division. Thus, the greater the left shift in CFSE, fluorescence the stronger T cells were activated.

Test [1] is described as follows: Anti-nicotine IgG in immunized mice (ELISA). In kind it is in vivo, mouse. The settings on record: FIGS. 36 and 37. For orientation: ELISA stands for enzyme-linked immunosorbent assay.

The record followed here is patent US8637028B2, “Adjuvant incorporation in immunonanotherapeutics” (President and Fellows of Harvard College, priority 2008, dated 2014).

Turning to “free OVA: free chicken ovalbumin model antigen”, the “local T cell proliferation in distal lymphoid tissues (brachial lymph node, spleen)” value with OT-II CD4 T cells was “only undivided cells or cells with very low CFSE content”.
In the case of `CN1CCCC1c1cccnc1` (centres unmarked) [free nicotine, nicotine], the “production of nicotine antibodies” value in test [1] is given as “does not elicit the production of nicotine antibodies”.
